# Values of other authors in patent publication US5981529A, “Substituted indolylpropyl-piperazine derivatives as 5-HT1D α agonists” (Merck Sharp & Dohme Limited, priority 1995, dated 1999).
# How the values were obtained:
# [1] = test system: human 5-HT1Dα and 5-HT1Dβ receptor subtypes; details: cf. WO-A-91/17174, Table 1
# [2] = therapeutic doses
compound,measurement,setting,value
CNS(=O)(=O)Cc1ccc2[nH]cc(CCN(C)C)c2c1 [sumatriptan],discrimination between the human 5-HT1Dα and 5-HT1Dβ receptor subtypes,[1],barely discriminates between the human 5-HT1Dα and 5-HT1Dβ receptor subtypes
same,adverse events on administration to humans,[2],certain adverse cardiovascular events
